Experimental data reported in patent US20250195530A1, “POLQ INHIBITORS” (ASTRAZENECA AB, priority 2022, published 2025).
Read-outs that look alike come from different tables or passages of the source.

Test system: DLD-1 BRCA2−/− cells
Test: Homologous recombination synthetic lethal inhibition of proliferation, DLD-1 BRCA2-/- (Cell Titre Glo 3D)
Format: cell-based
Details: for IC50: Homo sapiens
Summary of the method: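 DLD-1 BRCA2−/− and parental DLD-1 cells exposed to 10-point dose range (10 μM to 0.51 nM, 3-fold) in RPMI/10% FBS at 37 °C, with medium and compound replenished on day 6. Viability by Cell Titre Glo 3D luminescence at day 7 (DLD-1) or day 12 (BRCA2−/−); IC50 as concentration halving maximum signal.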

[1] = DLD-1, DLD-1 BRCA2 −/− cells, mean, read-out: POLQ PD Prolif Lumin BRCA2 −/− mean pIC50 (converted)
[2] = DLD-1, first proliferation column (c5), taken as DLD-1 BRCA2-/-, read-out: POLQ PD Prolif Lumin (converted)
[3] = DLD-1, DLD-1 BRCA2-/- proliferation, column head only partly shown, read-out: POLQ PD Prolif Lumin (converted)
[4] = DLD-1, proliferation, luminescence, taken as DLD-1 BRCA2-/-, read-out: POLQ PD Prolif Lumin (converted)
[5] = DLD-1, first proliferation column (c5), DLD-1 BRCA2-/-, read-out: POLQ PD Prolif Lumin (converted)

Cc1cccc(Cn2c(-c3ccc(CC(N)=O)cc3Cl)nc3c(OC4(C)CC4)ncnc32)c1 [Example T99, 2-(3-chloro-4-(9-(3-methylbenzyl)-6-(1-methylcyclopropoxy)-9H-purin-8-yl)phenyl)acetamide]
IC50 [1]: 79.4 nM

CC(CCOc1ccc(-c2nc3c(OC4(C)CC4)ncnc3n2Cc2cccc(F)c2F)c(Cl)c1)C(=O)O (single isomer, unassigned) [Example T262, 4-(3-chloro-4-(9-(2,3-difluorobenzyl)-6-(1-methylcyclopropoxy)-9H-purin-8-yl)phenoxy)-2-methylbutanoic acid]
POLQ PD Prolif Lumin (DLD-1 BRCA2-/- proliferation, column head only partly shown): 6.3

Cc1ccnc(Cn2c(-c3ccc(CCC(=O)N(C)C)cc3Cl)nc3c(OC4(C)CC4)ncnc32)c1 [Example T358, 3-(3-chloro-4-(6-(1-methylcyclopropoxy)-9-((4-methylpyridin-2-yl)methyl)-9H-purin-8-yl)phenyl)-N,N-dimethylpropanamide]
IC50 [2]: 251 nM

CC(CCOc1ccc(-c2nc3c(OC4(C)CC4)ncnc3n2Cc2cccc(Cl)c2F)c(Cl)c1)C(=O)O (single isomer, unassigned) [Example T270, 4-(3-chloro-4-(9-(3-chloro-2-fluorobenzyl)-6-(1-methylcyclopropoxy)-9H-purin-8-yl)phenoxy)-2-methylbutanoic acid]
IC50 [3]: 501 nM

CCNC(=O)COc1ccc(-c2nc3c(OC4(C)CC4)ncnc3n2Cc2cc(C)ccn2)c(Cl)c1 [Example T221, 2-(3-chloro-4-(6-(1-methylcyclopropoxy)-9-((4-methylpyridin-2-yl)methyl)-9H-purin-8-yl)phenoxy)-N-ethylacetamide]
IC50 [3]: 316 nM

Cc1ccnc(Cn2c(-c3ccc(OCC(=O)N4CC[C@@H](O)C4)cc3Cl)nc3c(OC4(C)CC4)ncnc32)c1 [Example T473, (R)-2-(3-chloro-4-(6-(1-methylcyclopropoxy)-9-((4-methylpyridin-2-yl)methyl)-9H-purin-8-yl)phenoxy)-1-(3-hydroxypyrrolidin-1-yl)ethan-1-one]
IC50 [4]: 1000 nM

Cc1ccnc(Cn2c(-c3ccc(C4CCNC4=O)cc3Cl)nc3c(OC4(C)CC4)ncnc32)c1 (racemic) [Example T176, 3-(3-chloro-4-(6-(1-methylcyclopropoxy)-9-((4-methylpyridin-2-yl)methyl)-9H-purin-8-yl)phenyl)pyrrolidin-2-one]
IC50 [5]: 794 nM

Cc1ccnc(Cn2c(-c3ccc(OCCN4CC[C@@H](O)C4=O)cc3Cl)nc3c(OC4(C)CC4)ncnc32)c1 [Example T474, (R)-1-(2-(3-chloro-4-(6-(1-methylcyclopropoxy)-9-((4-methylpyridin-2-yl)methyl)-9H-purin-8-yl)phenoxy)ethyl)-3-hydroxypyrrolidin-2-one]
IC50 [4]: 251 nM

CC1(Oc2ncnc3c2nc(-c2ccc(CC(N)=O)cc2Cl)n3Cc2cc(C#N)ccc2F)CC1 [Example T77, 2-(3-chloro-4-(9-(5-cyano-2-fluorobenzyl)-6-(1-methylcyclopropoxy)-9H-purin-8-yl)phenyl)acetamide]
IC50 [1]: 158 nM

Cc1ccnc(Cn2c(-c3ccc(C(=O)N4C[C@@H](O)[C@H](F)C4)cc3Cl)nc3c(OC4(C)CC4)ncnc32)c1 [Example T282, (3-chloro-4-(6-(1-methylcyclopropoxy)-9-((4-methylpyridin-2-yl)methyl)-9H-purin-8-yl)phenyl)((3R,4R)-3-fluoro-4-hydroxypyrrolidin-1-yl)methanone]
IC50 [3]: 2510 nM

Cc1cccc(Cn2c(-c3ccc(OCCC(C)C(=O)O)cc3Cl)nc3c(OC4(C)CC4)ncnc32)c1C (racemic) [Example T570, 4-(3-chloro-4-(9-(2,3-dimethylbenzyl)-6-(1-methylcyclopropoxy)-9H-purin-8-yl)phenoxy)-2-methylbutanoic acid]
IC50 [5]: 398 nM

Cc1ccnc(Cn2c(-c3ccc(C(=O)NC4(C)COC4)cc3Cl)nc3c(OC4(C)CC4)ncnc32)c1 [Example T317, 3-chloro-4-(6-(1-methylcyclopropoxy)-9-((4-methylpyridin-2-yl)methyl)-9H-purin-8-yl)-N-(3-methyloxetan-3-yl)benzamide]
IC50 [2]: 1000 nM

Cc1ncsc1CCn1c(-c2ccc(CC(N)=O)cc2Cl)nc2c(OC3(C)CC3)ncnc21 [Example T26, 2-(3-chloro-4-(6-(1-methylcyclopropoxy)-9-(2-(4-methylthiazol-5-yl)ethyl)-9H-purin-8-yl)phenyl)acetamide]
IC50 [1]: 316 nM

CNC(=O)Nc1ccc(-c2nc3c(OC4(C)CC4)ncnc3n2Cc2cc(C)ccn2)c(Cl)c1 [Example T66, 1-(3-chloro-4-(6-(1-methylcyclopropoxy)-9-((4-methylpyridin-2-yl)methyl)-9H-purin-8-yl)phenyl)-3-methylurea]
IC50 [1]: 398 nM

Cc1ccnc(Cn2c(-c3ccc(CC(=O)N4C5CNCC4C5)cc3Cl)nc3c(OC4(C)CC4)ncnc32)c1 [Example T557, 1-(3,6-diazabicyclo[3.1.1]heptan-6-yl)-2-(3-chloro-4-(6-(1-methylcyclopropoxy)-9-((4-methylpyridin-2-yl)methyl)-9H-purin-8-yl)phenyl)ethan-1-one]
IC50 [5]: 6310 nM

CC1(Oc2ncnc3c2nc(-c2ccc(CC(N)=O)cc2Cl)n3Cc2noc(C(C)(C)C)n2)CC1 [Example T71, 2-(4-(9-((5-(tert-butyl)-1,2,4-oxadiazol-3-yl)methyl)-6-(1-methylcyclopropoxy)-9H-purin-8-yl)-3-chlorophenyl)acetamide]
IC50 [1]: 7940 nM

Cc1ccnc(Cn2c(-c3ccc(N4CCC(O)CC4=O)cc3Cl)nc3c(OC4(C)CC4)ncnc32)c1 (racemic) [Example T321, 1-(3-chloro-4-(6-(1-methylcyclopropoxy)-9-((4-methylpyridin-2-yl)methyl)-9H-purin-8-yl)phenyl)-4-hydroxypiperidin-2-one]
IC50 [2]: 3980 nM

CC1NCCN(CCOc2ccc(-c3nc4c(OC5(C)CC5)ncnc4n3Cc3ccccc3)c(Cl)c2)C1=O (single isomer, unassigned; isomer 1) [Example R13, 1-(2-(4-(9-benzyl-6-(1-methylcyclopropoxy)-9H-purin-8-yl)-3-chlorophenoxy)ethyl)-3-methylpiperazin-2-one (Isomer 1)]
IC50 (DLD-1, 288 h, DLD-1 BRCA2−/− cells, 12 days, read-out: POLQ PD Prolif Lumin BRCA2 −/− mean pIC50 (converted)): 200 nM

Cc1ccnc(Cn2c(-c3ccc(OC4CCNC4=O)cc3Cl)nc3c(OC4(C)CC4)ncnc32)c1 (racemic) [Example T178, 3-(3-chloro-4-(6-(1-methylcyclopropoxy)-9-((4-methylpyridin-2-yl)methyl)-9H-purin-8-yl)phenoxy)pyrrolidin-2-one]
IC50 [5]: 501 nM

Cc1ccnc(Cn2c(-c3ccc(C(=O)NCC(F)(F)F)cc3Cl)nc3c(OC4(C)CC4)ncnc32)c1 [Example T86, 3-chloro-4-(6-(1-methylcyclopropoxy)-9-((4-methylpyridin-2-yl)methyl)-9H-purin-8-yl)-N-(2,2,2-trifluoroethyl)benzamide]
IC50 [1]: 501 nM

Cc1ccnc(Cn2c(-c3ccc(C(=O)N[C@@H]4CCOC4)cc3Cl)nc3c(OC4(C)CC4)ncnc32)c1 [Example T316, (R)-3-chloro-4-(6-(1-methylcyclopropoxy)-9-((4-methylpyridin-2-yl)methyl)-9H-purin-8-yl)-N-(tetrahydrofuran-3-yl)benzamide]
IC50 [2]: 631 nM

Cc1ccnc(Cn2c(-c3ccc(O[C@@H]4CNC(=O)C4)cc3Cl)nc3c(OC4(C)CC4)ncnc32)c1 [Example T184, (S)-4-(3-chloro-4-(6-(1-methylcyclopropoxy)-9-((4-methylpyridin-2-yl)methyl)-9H-purin-8-yl)phenoxy)pyrrolidin-2-one]
IC50 [5]: 251 nM
